Values quoted from earlier work as cited in US20110286960A1, “CANCER THERAPY BY DOCETAXEL AND GRANULOCYTE COLONY-STIMULATING FACTOR (G-CSF)” (OPTIMATA LTD., priority 2008, published 2011).
Read-outs that look alike come from different tables or passages of the source.

Columns and labels:
[1] = Baker et al., 2004, mean ± STD
neutrophils [2] = conditions: for nadir of neutrophil level: human, in vivo
neutrophils [3] = conditions: G-CSF treatment one day post-chemotherapy
[4] = docetaxel clinical trial results (17, 28)

In the case of `CC(=O)O[C@@]12CO[C@@H]1C[C@H](O)[C@@]1(C)C(=O)[C@H](O)C3=C(C)[C@@H](OC(=O)[C@H](O)[C@@H](NC(=O)OC(C)(C)C)c4ccccc4)C[C@@](O)([C@@H](OC(=O)c4ccccc4)[C@H]21)C3(C)C` [Docetaxel], the AUC ([1]; 35 mg/m^2) is given as 1320 ± 420 ng·h/mL, the Clearance ([1]; 35 mg/m^2) is given as 29.10 ± 10.20 L/h*m^2 and the Cmax ([1]; 35 mg/m^2) is given as 1850 ± 730 ng/mL. For the same molecule, the Terminal half life ([1]; 35 mg/m^2) was 15.60 ± 12.00 h, the AUC ([1]; 100 mg/m^2) was 5620 ± 2120 ng·h/mL and the Clearance ([1]; 100 mg/m^2) was 19.60 ± 5.60 L/h*m^2. The Cmax ([1]; 100 mg/m^2) was 4150 ± 1350 ng/mL, the Terminal half life ([1]; 100 mg/m^2) was 17.20 ± 6.20 h and the “patients suffering grade 3/4 neutropenia” value (neutrophils [2]; 14 patients, weekly docetaxel 40-45 mg/m^2, three consecutive weeks in cycles of four weeks (38)) was “Half”. The “nadir recorded on days” value (neutrophils [2]; [4]) was 6 to 10 days, the “recovery to baseline recorded on days” value (neutrophils [2]; [4]) was 16 to 22 days and the neutropenia (neutrophils [2]; docetaxel dose up to 145 mg/m^2, as reported in (36)) was “acceptable neutropenia”. The “patients suffering grade 3/4 neutropenia” value (neutrophils [2]; patients receiving 30-35 mg/m2/week (38)) was “none”, the “docetaxel clearance, CYP3A-affected clinically observed range” value was 5.4-29.1 Uhr/m^2 and the “docetaxel clearance, observed range” value (CYP3A inter-individual variability (27)) was 5.4-29.1 L/hr/m^2.

In the case of `CCc1c2c(nc3ccc(OC(=O)N4CCC(N5CCCCC5)CC4)cc13)-c1cc3c(c(=O)n1C2)COC(=O)[C@]3(O)CC` [Irinotecan], the “nadir of neutrophil level” value (neutrophils [2]) is listed as 9 days.

In the case of `CC[C@]12C=CCN3CC[C@@]4(c5cc([C@@]6(C(=O)OC)C[C@@H]7C[C@@H](C(C)(F)F)CN(Cc8c6[nH]c6ccccc86)C7)c(OC)cc5N(C)[C@H]4[C@@](O)(C(=O)OC)[C@@H]1OC(C)=O)[C@@H]32` [vinflunine], the “nadir of neutrophil level” value (neutrophils [2]) is listed as 20 days.

B1: G-CSF: Granulocyte Colony-Stimulating Factor, neutropenia alleviating support therapy (protein, UniProt P09919 31-207, looked up)
Granulocyte …: TPLGPASSLPQSFLLKCLEQVRKIQGDGAALQEKLVSECATYKLCHPEELVLLGHSLGIPWAPLSSCPSQALQLAGCLSQLHSGLFLYQGLLQALEGISPELGPTLDTLQLDVADFATTIWQQMEELGMAPALQPTQGAMPAFASAFQRRAGGVLVASHLQSFLEVSYRVLRHLAQP
For B1, the effect on neutropenia (neutrophils [3]) is given as “speeds up and aggravates neutropenia” and the “grade 4 neutropenia reported” value (neutrophils [2]; G-CSF post-docetaxel, locally advanced breast cancer (10) or advanced NSCLC patients (11)) is given as “No grade 4 neutropenia”.
